Reference: PubChem BioAssay AID2060894 (Molecular Pharmacology Branch, DTP, NCI, 2025)
Blank lines part the entries; values can stand above or below the molecule they belong to.

Tested on: K12877-001-R-J1-PDC complex spheroid viability
Assay: Anticancer human tumor K12877-001-R-J1-PDC patient-derived lung adenocarcinoma cell line growth inhibition [RAS]
Details: for viability, T/C: stronger effect = lower value; for IC50: curve of first compound
How it was run: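 Multi-cell-type spheroids: tumor cells plus HUVEC endothelial cells and mesenchymal stem cells. RAS-pathway inhibitors were combined with targeted agents, each dosed in half-log steps down from clinical Cmax, or from 10 microM when Cmax was unknown.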

[1] = second compound 0.0316 µM, first compound 0.00316 µM
[2] = second compound 0.0316 µM, first compound 0.01 µM
[3] = second compound 0.0316 µM, first compound 0.0316 µM
[4] = second compound 0.0316 µM, first compound 0.1 µM
[5] = second compound 0.0316 µM, first compound 0.316 µM
[6] = second compound 0.0316 µM, first compound 1 µM
[7] = second compound 0.1 µM, first compound 0.00316 µM
[8] = second compound 0.1 µM, first compound 0.01 µM
[9] = second compound 0.1 µM, first compound 0.0316 µM
[10] = second compound 0.1 µM, first compound 0.1 µM
[11] = second compound 0.1 µM, first compound 0.316 µM
[12] = second compound 0.1 µM, first compound 1 µM
[13] = second compound 0.316 µM, first compound 0.00316 µM
[14] = second compound 0.316 µM, first compound 0.01 µM
[15] = second compound 0.316 µM, first compound 0.0316 µM
[16] = second compound 0.316 µM, first compound 0.1 µM
[17] = second compound 0.316 µM, first compound 0.316 µM
[18] = second compound 0.316 µM, first compound 1 µM
[19] = second compound 1 µM, first compound 0.00316 µM
[20] = second compound 1 µM, first compound 0.01 µM
[21] = second compound 1 µM, first compound 0.0316 µM
[22] = second compound 1 µM, first compound 0.1 µM
[23] = second compound 1 µM, first compound 0.316 µM
[24] = second compound 1 µM, first compound 1 µM
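Further: spheroids exposed to agents for one week before readout.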
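Wherever viability, T/C is given: tumour cells co-cultured with HUVEC and mesenchymal stem cells in spheroids.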

Compound: CC(Nc1ccc2c(c1)OCCn1cc(N3C(=O)OCC3C(F)F)nc1-2)C(N)=O (stereo not drawn)
viability, T/C (compound 0.0316 µM): 91.3% [middle of 4 runs] | viability, T/C (compound 1 µM): 69.9% [middle of 4 runs]

IC50 (second compound 0.00316 µM): 0.945 µM | IC50 (second compound 0.01 µM): 0.545 µM | IC50 (second compound 0.0316 µM): 0.691 µM | IC50 (second compound 0.1 µM): 0.614 µM | IC50 (second compound 0.316 µM): 0.597 µM | IC50 (second compound 1 µM): 0.696 µM
Compound: CCN1CCN(Cc2ccc(Nc3ncc(F)c(-c4cc(F)c5nc(C)n(C(C)C)c5c4)n3)nc2)CC1 + C=CC(=O)N1CCN(c2nc(OCC3CCCN3C)nc3c(F)c(-c4nc(N)cc(C)c4C(F)(F)F)c(Cl)cc23)C(C)C1
viability, T/C (second compound 0.00316 µM, first compound 0.00316 µM): 95.9% | viability, T/C (second compound 0.00316 µM, first compound 0.01 µM): 103% | viability, T/C (second compound 0.00316 µM, first compound 0.0316 µM): 97.2% | viability, T/C (second compound 0.00316 µM, first compound 0.1 µM): 91.3% | viability, T/C (second compound 0.00316 µM, first compound 0.316 µM): 83.5% | viability, T/C (second compound 0.00316 µM, first compound 1 µM): 47.8% | viability, T/C (second compound 0.01 µM, first compound 0.00316 µM): 88.3% | viability, T/C (second compound 0.01 µM, first compound 0.01 µM): 89.8% | viability, T/C (second compound 0.01 µM, first compound 0.0316 µM): 85.2% | viability, T/C (second compound 0.01 µM, first compound 0.1 µM): 95.4% | viability, T/C (second compound 0.01 µM, first compound 0.316 µM): 65.2% | viability, T/C (second compound 0.01 µM, first compound 1 µM): 33.2% | viability, T/C [1]: 96.4% | viability, T/C [2]: 90.4% | viability, T/C [3]: 76.5% | viability, T/C [4]: 76.7% | viability, T/C [5]: 75.8% | viability, T/C [6]: 39.2% | viability, T/C [7]: 92.2% | viability, T/C [8]: 84.5% | viability, T/C [9]: 83.3% | viability, T/C [10]: 72.4% | viability, T/C [11]: 65.8% | viability, T/C [12]: 39.6% | viability, T/C [13]: 95.2% | viability, T/C [14]: 86.5% | viability, T/C [15]: 79.9% | viability, T/C [16]: 77.9% | viability, T/C [17]: 78.6% | viability, T/C [18]: 30.1% | viability, T/C [19]: 85% | viability, T/C [20]: 77.2% | viability, T/C [21]: 88.1% | viability, T/C [22]: 81.1% | viability, T/C [23]: 74.1% | viability, T/C [24]: 38.9%

IC50 (second compound 0.0316 µM): > 1 µM | IC50 (second compound 0.1 µM): > 1 µM | IC50 (second compound 0.316 µM): > 1 µM | IC50 (second compound 1 µM): > 1 µM | IC50 (second compound 3.16 µM): > 1 µM | IC50 (second compound 10 µM): > 1 µM
Compound: O=C(c1ccc(F)c(F)c1Nc1ccc(I)cc1F)N1CC(O)([C@@H]2CCCCN2)C1 + C#Cc1c(F)ccc2cc(O)cc(-c3ncc4c(N5CC6CCC(C5)N6)nc(OCC56CCCN5CC(F)C6)nc4c3F)c12
viability, T/C [1]: 119% | viability, T/C [2]: 102% | viability, T/C [3]: 102% | viability, T/C [4]: 81.9% | viability, T/C [5]: 77.9% | viability, T/C [6]: 58% | viability, T/C [7]: 110% | viability, T/C [8]: 107% | viability, T/C [9]: 91.5% | viability, T/C [10]: 92.8% | viability, T/C [11]: 82.3% | viability, T/C [12]: 57.1% | viability, T/C [13]: 108% | viability, T/C [14]: 104% | viability, T/C [15]: 94.9% | viability, T/C [16]: 84.7% | viability, T/C [17]: 74% | viability, T/C [18]: 62.9% | viability, T/C [19]: 105% | viability, T/C [20]: 116% | viability, T/C [21]: 87.9% | viability, T/C [22]: 93.7% | viability, T/C [23]: 77.7% | viability, T/C [24]: 58.1% | viability, T/C (second compound 3.16 µM, first compound 0.00316 µM): 110% | viability, T/C (second compound 3.16 µM, first compound 0.01 µM): 103% | viability, T/C (second compound 3.16 µM, first compound 0.0316 µM): 92.8% | viability, T/C (second compound 3.16 µM, first compound 0.1 µM): 86.5% | viability, T/C (second compound 3.16 µM, first compound 0.316 µM): 75.7% | viability, T/C (second compound 3.16 µM, first compound 1 µM): 62.9% | viability, T/C (second compound 10 µM, first compound 0.00316 µM): 102% | viability, T/C (second compound 10 µM, first compound 0.01 µM): 84.4% | viability, T/C (second compound 10 µM, first compound 0.0316 µM): 82.8% | viability, T/C (second compound 10 µM, first compound 0.1 µM): 85.6% | viability, T/C (second compound 10 µM, first compound 0.316 µM): 78.9% | viability, T/C (second compound 10 µM, first compound 1 µM): 63.8%

IC50 (second compound 0.000949 µM): 0.58 µM | IC50 (second compound 0.003 µM): 0.509 µM | IC50 (second compound 0.00949 µM): 0.225 µM | IC50 (second compound 0.03 µM): 0.145 µM | IC50 (second compound 0.0949 µM): 0.136 µM | IC50 (second compound 0.3 µM): 0.0677 µM
Compound: NC1c2ccccc2OC12CCN(c1cnc3c(N4CCCc5ncccc54)n[nH]c3n1)CC2 (stereo not drawn) + CCn1c(-c2cccnc2C(C)OC)c2c3cc(ccc31)N1CCOC(CC(NC(=O)C(C(C)C)N(C)C(=O)C3(F)CCN(C(=O)C#CC(C)(C)N(C)C)CC3)C(=O)N3CCCC(N3)C(=O)OCC(C)(C)C2)C1
viability, T/C (second compound 0.000949 µM, first compound 0.0316 µM): 69% | viability, T/C (second compound 0.000949 µM, first compound 0.1 µM): 67.8% | viability, T/C (second compound 0.000949 µM, first compound 0.316 µM): 56% | viability, T/C (second compound 0.000949 µM, first compound 1 µM): 43.8% | viability, T/C (second compound 0.000949 µM, first compound 3.16 µM): 38.5% | viability, T/C (second compound 0.000949 µM, first compound 10 µM): 34% | viability, T/C (second compound 0.003 µM, first compound 0.0316 µM): 65.8% | viability, T/C (second compound 0.003 µM, first compound 0.1 µM): 62.2% | viability, T/C (second compound 0.003 µM, first compound 0.316 µM): 52.5% | viability, T/C (second compound 0.003 µM, first compound 1 µM): 45.4% | viability, T/C (second compound 0.003 µM, first compound 3.16 µM): 37% | viability, T/C (second compound 0.003 µM, first compound 10 µM): 30% | viability, T/C (second compound 0.00949 µM, first compound 0.0316 µM): 76.9% | viability, T/C (second compound 0.00949 µM, first compound 0.1 µM): 54.1% | viability, T/C (second compound 0.00949 µM, first compound 0.316 µM): 49.5% | viability, T/C (second compound 0.00949 µM, first compound 1 µM): 38.5% | viability, T/C (second compound 0.00949 µM, first compound 3.16 µM): 37.6% | viability, T/C (second compound 0.00949 µM, first compound 10 µM): 28.9% | viability, T/C (second compound 0.03 µM, first compound 0.0316 µM): 65.9% | viability, T/C (second compound 0.03 µM, first compound 0.1 µM): 50.9% | viability, T/C (second compound 0.03 µM, first compound 0.316 µM): 44.9% | viability, T/C (second compound 0.03 µM, first compound 1 µM): 39.3% | viability, T/C (second compound 0.03 µM, first compound 3.16 µM): 34.5% | viability, T/C (second compound 0.03 µM, first compound 10 µM): 30.8% | viability, T/C (second compound 0.0949 µM, first compound 0.0316 µM): 62.4% | viability, T/C (second compound 0.0949 µM, first compound 0.1 µM): 52.1% | viability, T/C (second compound 0.0949 µM, first compound 0.316 µM): 41.8% | viability, T/C (second compound 0.0949 µM, first compound 1 µM): 38.3% | viability, T/C (second compound 0.0949 µM, first compound 3.16 µM): 39.1% | viability, T/C (second compound 0.0949 µM, first compound 10 µM): 27.4% | viability, T/C (second compound 0.3 µM, first compound 0.0316 µM): 58.3% | viability, T/C (second compound 0.3 µM, first compound 0.1 µM): 46.9% | viability, T/C (second compound 0.3 µM, first compound 0.316 µM): 35% | viability, T/C (second compound 0.3 µM, first compound 1 µM): 29.1% | viability, T/C (second compound 0.3 µM, first compound 3.16 µM): 29.8% | viability, T/C (second compound 0.3 µM, first compound 10 µM): 22.8%
